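Method: 48-hour compound exposure of cells in 96-well plates, five concentrations, linear interpolation of endpoints. Definition used: TGI = concentration required for complete inhibition of growth.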
Key:
Assay in all cases: growth of human tumour cells (NCI), 48 h
[1] = system: SNB-75 CNS
[2] = system: HCC-2998 colon
[3] = system: SN12C renal
[4] = system: EKVX NSCLC
[5] = system: SW-620 colon
[6] = system: OVCAR-8 ovarian
[7] = system: 786-0 renal
[8] = system: MALME-3M melanoma
[9] = system: SK-OV-3 ovarian
[10] = system: DMS 114 small cell lung
[11] = system: HOP-18 NSCLC
[12] = system: HOP-62 NSCLC
[13] = system: IGROV1 ovarian
[14] = system: OVCAR-3 ovarian
[15] = system: M14 melanoma
[16] = system: HOP-92 NSCLC
[17] = system: XF 498 CNS
[18] = system: LOX IMVI melanoma
[19] = system: SNB-78 CNS
[20] = system: UACC-257 melanoma
[21] = system: SF-295 CNS
[22] = system: SNB-19 CNS
[23] = system: SK-MEL-2 melanoma
[24] = system: A549 NSCLC
[25] = system: OVCAR-4 ovarian
[26] = system: HCT-15 colon
[27] = system: M19-MEL melanoma
[28] = system: LXFL 529 NSCLC
[29] = system: COLO 205 colon
[30] = system: OVCAR-5 ovarian
[31] = system: HCT-116 colon
[32] = system: DLD-1 colon
[33] = system: RPMI-8226 leukemia
[34] = system: A498 renal
[35] = system: SK-MEL-28 melanoma
[36] = system: NCI-H23 lung
[37] = system: DMS 273 small cell lung
[38] = system: ACHN renal
[39] = system: NCI-H226 lung
[40] = system: SF-268 CNS
[41] = system: UO-31 renal
[42] = system: RXF 393 renal
[43] = system: NCI-H460 lung
[44] = system: CAKI-1 renal
[45] = system: U251 CNS
[46] = system: UACC-62 melanoma
[47] = system: KM20L2 colon
[48] = system: SF-539 CNS
[49] = system: KM12 colon
[50] = system: HT29 colon
[51] = system: TK-10 renal
[52] = system: HL-60(TB) leukemia
[53] = system: SK-MEL-5 melanoma
[54] = system: MOLT-4 leukemia
[55] = system: K-562 leukemia
[56] = system: CCRF-CEM leukemia
[57] = system: NCI-H522 lung

With `CCOc1ccccc1N1C(=O)C(=O)C(c2nc3ccccc3s2)C(=O)C1=O` the TGI [1] was > 100 µM, the TGI [2] was > 100 µM and the TGI [3] was > 100 µM. For the same compound, the TGI [4] was > 100 µM, the TGI [5] was > 100 µM and the TGI [6] was > 100 µM. For the same compound, the TGI [7] was 20.8 µM, the TGI [8] was > 100 µM and the TGI [9] was > 100 µM. For the same compound, the TGI [10] was > 100 µM, the TGI [11] was 69.8 µM and the TGI [12] was > 100 µM. For the same compound, the TGI [13] was > 100 µM, the TGI [14] was 44.2 µM and the TGI [15] was > 100 µM. For the same compound, the TGI [16] was > 100 µM, the TGI [17] was > 100 µM and the TGI [18] was > 100 µM. For the same compound, the TGI [19] was > 100 µM, the TGI [20] was > 100 µM and the TGI [21] was > 100 µM. The TGI [22] was > 100 µM, the TGI [23] was > 100 µM and the TGI [24] was > 100 µM. For the same compound, the TGI [25] was 17.8 µM, the TGI [26] was > 100 µM and the TGI [27] was > 100 µM. For the same compound, the TGI [28] was > 100 µM, the TGI [29] was > 100 µM and the TGI [30] was > 100 µM. The TGI [31] was > 100 µM, the TGI [32] was > 100 µM and the TGI [33] was > 100 µM. For the same compound, the TGI [34] was 39 µM, the TGI [35] was > 100 µM and the TGI [36] was > 100 µM. The TGI [37] was > 100 µM, the TGI [38] was 54 µM and the TGI [39] was > 100 µM. The TGI [40] was > 100 µM, the TGI [41] was > 100 µM and the TGI [42] was > 100 µM. For the same compound, the TGI [43] was > 100 µM, the TGI [44] was > 100 µM and the TGI [45] was > 100 µM. For the same compound, the TGI [46] was > 100 µM, the TGI [47] was > 100 µM and the TGI [48] was > 100 µM. The TGI [49] was > 100 µM, the TGI [50] was > 100 µM and the TGI [51] was > 100 µM.

With `O=C1Nc2ccccc2C12CCCC2` the TGI [52] was > 100 µM, the TGI [1] was > 100 µM and the TGI [2] was > 100 µM. For the same compound, the TGI [53] was > 100 µM, the TGI [3] was > 100 µM and the TGI [4] was > 100 µM. For the same compound, the TGI [5] was > 100 µM, the TGI [6] was > 100 µM and the TGI [7] was > 100 µM. The TGI [8] was > 100 µM, the TGI [9] was > 100 µM and the TGI [10] was > 100 µM. The TGI [11] was > 100 µM, the TGI [12] was > 100 µM and the TGI [54] was > 100 µM. The TGI [13] was > 100 µM, the TGI [14] was > 100 µM and the TGI [15] was > 100 µM. For the same compound, the TGI [17] was > 100 µM, the TGI [19] was > 100 µM and the TGI [20] was > 100 µM. The TGI [21] was > 100 µM, the TGI [22] was > 100 µM and the TGI [23] was > 100 µM. The TGI [24] was > 100 µM, the TGI [55] was > 100 µM and the TGI [25] was > 100 µM. For the same compound, the TGI [26] was > 100 µM, the TGI [27] was > 100 µM and the TGI [28] was > 100 µM. The TGI [29] was > 100 µM, the TGI [31] was > 100 µM and the TGI [32] was > 100 µM. The TGI [33] was > 100 µM, the TGI [34] was > 100 µM and the TGI [35] was > 100 µM. For the same compound, the TGI [36] was > 100 µM, the TGI [37] was > 100 µM and the TGI [38] was > 100 µM. The TGI [56] was > 100 µM, the TGI [40] was > 100 µM and the TGI [57] was > 100 µM. The TGI [41] was > 100 µM, the TGI [42] was > 100 µM and the TGI [43] was > 100 µM. The TGI [44] was > 100 µM, the TGI [45] was > 100 µM and the TGI [46] was > 100 µM. The TGI [47] was > 100 µM, the TGI [48] was > 100 µM and the TGI [49] was > 100 µM. For the same compound, the TGI [50] was > 100 µM and the TGI [51] was > 100 µM.

`C#C[C@]1(O)CCC2C3CCc4cc(Oc5nc(F)nc(-n6c(C)nc7cc8ccccc8cc76)n5)ccc4C3CCC21C` (stereo not given in full) was tested, and the TGI [52] was > 100 µM, the TGI [1] was > 100 µM and the TGI [2] was > 100 µM. For the same compound, the TGI [53] was > 100 µM, the TGI [3] was > 100 µM and the TGI [4] was > 100 µM. For the same compound, the TGI [5] was > 100 µM, the TGI [6] was > 100 µM and the TGI [7] was > 100 µM. For the same compound, the TGI [8] was > 100 µM, the TGI [9] was > 100 µM and the TGI [10] was 53.8 µM. For the same compound, the TGI [11] was > 100 µM, the TGI [12] was > 100 µM and the TGI [54] was > 100 µM. For the same compound, the TGI [13] was > 100 µM, the TGI [14] was > 100 µM and the TGI [15] was > 100 µM. The TGI [16] was > 100 µM, the TGI [17] was > 100 µM and the TGI [18] was > 100 µM. The TGI [19] was > 100 µM, the TGI [20] was > 100 µM and the TGI [21] was > 100 µM. The TGI [22] was > 100 µM, the TGI [23] was > 100 µM and the TGI [24] was > 100 µM. For the same compound, the TGI [55] was > 100 µM, the TGI [27] was > 100 µM and the TGI [28] was > 100 µM. For the same compound, the TGI [29] was 45.8 µM, the TGI [31] was > 100 µM and the TGI [32] was > 100 µM. The TGI [33] was > 100 µM, the TGI [36] was > 100 µM and the TGI [37] was > 100 µM. The TGI [38] was > 100 µM, the TGI [56] was > 100 µM and the TGI [39] was > 100 µM. For the same compound, the TGI [40] was > 100 µM, the TGI [57] was > 100 µM and the TGI [41] was > 100 µM. The TGI [42] was > 100 µM, the TGI [43] was 65.9 µM and the TGI [45] was > 100 µM. For the same compound, the TGI [46] was > 100 µM, the TGI [47] was > 100 µM and the TGI [48] was > 100 µM. The TGI [49] was > 100 µM, the TGI [50] was > 100 µM and the TGI [51] was > 100 µM.

With `Cc1cc(C)nc(NS(=O)(=O)c2ccc(NC(=O)c3cccc4c(Nc5ccc(S(=O)(=O)Nc6nc(C)cc(C)n6)cc5)c5ccc(Cl)cc5nc34)cc2)n1` the TGI [1] was 67.9 µM, the TGI [2] was > 100 µM and the TGI [53] was 42.7 µM. The TGI [3] was > 100 µM, the TGI [4] was > 100 µM and the TGI [5] was > 100 µM. The TGI [6] was > 100 µM, the TGI [7] was > 100 µM and the TGI [8] was 50.3 µM. For the same compound, the TGI [9] was 77.1 µM, the TGI [10] was 79.8 µM and the TGI [11] was > 100 µM. For the same compound, the TGI [12] was 71.9 µM, the TGI [54] was > 100 µM and the TGI [13] was > 100 µM. The TGI [14] was 58.3 µM, the TGI [15] was > 100 µM and the TGI [16] was 62.6 µM. The TGI [17] was 59.8 µM, the TGI [18] was > 100 µM and the TGI [19] was > 100 µM. The TGI [20] was 62.9 µM, the TGI [21] was > 100 µM and the TGI [22] was > 100 µM. The TGI [23] was > 100 µM, the TGI [24] was > 100 µM and the TGI [55] was 88.6 µM. For the same compound, the TGI [25] was > 100 µM, the TGI [26] was > 100 µM and the TGI [27] was > 100 µM. For the same compound, the TGI [28] was > 100 µM, the TGI [29] was > 100 µM and the TGI [30] was > 100 µM. The TGI [31] was > 100 µM, the TGI [32] was > 100 µM and the TGI [33] was 91.9 µM. For the same compound, the TGI [34] was > 100 µM, the TGI [35] was > 100 µM and the TGI [36] was > 100 µM. For the same compound, the TGI [37] was > 100 µM, the TGI [38] was > 100 µM and the TGI [56] was 79.8 µM. For the same compound, the TGI [40] was > 100 µM, the TGI [57] was 54.7 µM and the TGI [41] was 82 µM. For the same compound, the TGI [42] was > 100 µM, the TGI [43] was > 100 µM and the TGI [44] was 77.1 µM. The TGI [45] was > 100 µM, the TGI [46] was 56.2 µM and the TGI [47] was > 100 µM. The TGI [48] was > 100 µM, the TGI [49] was > 100 µM and the TGI [50] was > 100 µM. The TGI [51] was > 100 µM.

From PubChem BioAssay (NCI)
